Experimental data published in PubChem BioAssay AID434987 (Southern Research Specialized Biocontainment Screening …, 2010).
Activity calls are given as the source filed them. No rule for the calls is given here.

Test system: M. tuberculosis H37Rv growth inhibition with meropenem
Experiment: dose response, H37Rv, with and without meropenem (AID 434987);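 also: growth over 7 days at 37 °C before Alamar Blue read on day 9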
[1] = M. tuberculosis H37Rv growth inhibition, measured here: IC50 without meropenem
[2] = M. tuberculosis H37Rv growth inhibition, measured here: IC90 without meropenem
[3] = measured here: IC90 with meropenem

Structure (SMILES)	IC50	IC50 [1] [µM]	IC90 [2] [µM]	IC90 [3] [µM]
CC(=O)C1=C(C)NC(SCC(=O)c2ccccc2)=C(C#N)C1CC(C)C (configuration not stated)	51.8 µM (inactive)	88.5	> 100	> 100
COC(=O)c1ccc(/C=N/Nc2nc(-c3ccc(C)cc3)cs2)cc1	10.9 µM	> 100	> 100	> 100
CCCCC(=O)NC(=S)Nc1ccc(NC(=O)C(C)C)c(OC)c1	99.9 µM (inactive)	> 100	> 100	> 100
O=C(NCc1nc2ncc(Br)cc2[nH]1)c1ccccc1	49.2 µM (inactive)	94	> 100	54.9
O=C(NC1c2ccccc2-c2ccccc21)c1ccco1	> 100 µM (inactive)	> 100	> 100	> 100
COc1ccc(C(=O)Nc2nc3ccccc3s2)c(OC)c1	> 100 µM (inactive)	> 100	> 100	> 100
CC(/C=N/NC(=O)c1cc(-c2cccs2)[nH]n1)=C\c1ccccc1	> 100 µM (inactive)	> 100	> 100	> 100
CCOc1ccc2nc(N3CCC(C(=O)NC4CCCCC4)CC3)sc2c1	> 100 µM (inactive)	> 100	> 100	> 100
O=C(CCNc1ccc(F)cc1)c1cccc([N+](=O)[O-])c1	> 100 µM (inactive)	> 100	> 100	> 100
CCc1ccc(NC(=O)C2C3/C=C\CCCCC32)cc1 (configuration not stated)	72 µM (inactive)	> 100	> 100	> 100
CN(C)c1ccc(/C=N/NC(=O)c2cc(-c3ccc4c(c3)OCO4)n[nH]2)cc1	> 100 µM (inactive)	> 100	> 100	> 100
O=C(NCC(c1ccco1)N1CCc2ccccc21)c1ccc([N+](=O)[O-])cc1 (configuration not stated)	> 100 µM (inactive)	> 100	> 100	> 100
CC(C)OCc1c(C(=O)Nc2nccs2)oc2ccccc12	97.9 µM (inactive)	> 100	> 100	> 100
COC(=O)CNC(c1ccccc1Cl)c1cc(Br)ccc1NC(=O)CCN1CCOCC1 (configuration not stated)	19.8 µM	49.1	53.7	34.3
Cc1ccc(C2=N/C(=C\c3cccc(F)c3)C(=O)O2)cc1	1.49 µM	7.03	79.6	4.02
CC(C)CCSc1nc(N2CCOCC2)c2c(c1C#N)CC(C)(C)OC2	78.2 µM (inactive)	> 100	> 100	> 100
CCOC(=O)c1cc(C(=O)OCC)cc(-n2cc(O)c(C(=O)OCC)n2)c1	> 100 µM (inactive)	> 100	> 100	> 100
COc1cc2c(=O)n(Cc3ccco3)c(=O)n(CC(=O)c3cccc(Br)c3)c2cc1OC	> 100 µM (inactive)	> 100	> 100	> 100
COc1ccc(NC(=O)c2cc(C)nc3ccccc23)c(OC)c1	11.7 µM	31.6	69.1	12.9
CS/C(N)=N/N=C/c1cc(Br)cc(Br)c1O	19.7 µM (inactive)	34.7	> 100	> 100

Structure (SMILES)	IC50	IC50 [1] [µM]	IC90 [2] [µM]	IC90 [3] [µM]
Cc1nn(C)c(C(=O)NC(=S)Nc2ccccc2Br)c1Cl	> 100 µM (inactive)	> 100	> 100	> 100
CC(C)(C)Nc1nc(Nc2ccc([N+](=O)[O-])cc2)nc(NC(C)(C)C)n1	> 100 µM (inactive)	> 100	> 100	> 100
Cc1ccc(Cn2c(NC(=O)c3ccco3)nc3ccccc32)cc1	2.62 µM	> 100	> 100	> 100
COC(=O)c1sc(-c2ccc(Cl)cc2)cc1NC(=O)COCC(=O)O	15.2 µM	39.5	> 100	44.8
O=C(CNC(=O)c1ccc(Br)cc1)NCC(=O)OCc1ccc(Cl)cc1	12.4 µM	56.9	> 100	> 100
CCOC(=O)N1CCC(N2CCN(S(=O)(=O)c3ccc(Cl)cc3)CC2)CC1	> 100 µM (inactive)	> 100	> 100	> 100
Cc1ccc(C(=O)NN2C(=O)/C(=C/c3cccn3C)SC2=S)cc1	> 100 µM (inactive)	> 100	> 100	> 100
O=C(NNC1=C(C(=O)C(F)(F)F)CCC1)c1cccc(O)c1	68 µM (inactive)	> 100	> 100	> 100
CCCn1nc(NC(=O)c2ccco2)c2cc3cc(C)ccc3nc21	> 100 µM (inactive)	> 100	> 100	> 100
COc1ccc(C2(CNC(=O)c3cc([N+](=O)[O-])cc([N+](=O)[O-])c3)CCCC2)cc1OC	1.43 µM (inactive)	1.86	3	1.61
O=C1C(Cl)=C(N2CCCCCC2)C(=O)N1c1ccc(Br)cc1	7.59 µM (inactive)	18.3	> 100	19.4
COc1ccccc1N1CCN(/N=C/c2cccc(OC)c2OC)CC1	> 100 µM (inactive)	> 100	> 100	> 100
CCc1cc2c(Sc3nc4ccccc4s3)ncnc2s1	50.6 µM (inactive)	90.1	> 100	> 100
COc1ccc(C2C(C#N)=C(SCC(=O)Nc3ccc(C)cc3)NC3=C2C(=O)CC(C)(C)C3)cc1 (configuration not stated)	94.3 µM (inactive)	> 100	> 100	> 100
COc1ccccc1N1CCN(S(=O)(=O)c2ccc3nc(-c4ccccc4)[nH]c3c2)CC1	> 100 µM (inactive)	> 100	> 100	> 100
COc1cc(OC)c(C(=O)Nc2cccc3ccccc23)cc1OC	> 100 µM (inactive)	> 100	> 100	> 100
O=C1NC(c2ccc(Br)cc2)Nc2sc3c(c21)CCC3 (configuration not stated)	> 100 µM (inactive)	> 100	> 100	> 100
Cc1cccc(NC(=O)Cn2cnc3c(oc4ccccc43)c2=O)c1C	> 100 µM (inactive)	> 100	> 100	> 100
CCCC(=O)Nc1nc(-c2ccccc2)ns1	> 100 µM (inactive)	> 100	> 100	> 100
Cc1ccc(C2=NN(C(=O)CN3C(=O)c4ccccc4S3(=O)=O)C(c3ccco3)C2)cc1 (configuration not stated)	> 100 µM (inactive)	> 100	> 100	> 100

Structure (SMILES)	IC50	IC50 [1] [µM]	IC90 [2] [µM]	IC90 [3] [µM]
Cc1ccc(OC(=O)COc2ccccc2)c(-n2nc3ccccc3n2)c1	> 100 µM (inactive)	> 100	> 100	> 100
Cc1ccc(Cn2c(C(C)Nc3nc(-c4ccc(Cl)cc4)cs3)nc3cc(C(=O)NCCCO)ccc32)cc1 (configuration not stated)	73.5 µM (inactive)	67.3	86.4	> 100
CC(=O)OCC(=O)Nc1ccc(C(C)=O)cc1	89.2 µM (inactive)	95.5	> 100	> 100
Cc1cc(C)cc(OCC(=O)NNC(=O)c2ccccn2)c1	1.66 µM	10.9	22.3	16
O=S(=O)(Cc1ccccc1)c1cnc2ccccc2n1	14.1 µM (inactive)	24.3	26.6	48.6
Nc1ncnc2c1c(-c1ccc(Oc3ccccc3)cc1)cn2C1CCCC1	17.1 µM (inactive)	26.4	42.5	60.3
O=C(CSc1n[nH]c(=O)n1C1CC1)c1ccc2c(c1)OCCO2	4.9 µM	46.3	> 100	> 100
NC(=O)CN1C(=O)C(O)(CC(=O)/C=C\C=C\c2ccccc2)c2ccccc21 (configuration not stated)	> 100 µM (inactive)	> 100	> 100	> 100
N=C1C(c2nc3ccccc3[nH]2)=C(O)CN1c1ccc(F)cc1	7.73 µM	> 100	> 100	> 100
COc1cc(/C(C)=N\NC(N)=S)cc(OC)c1OC	10.2 µM	> 100	> 100	19.6
Cc1cc(NC(=O)CSc2ncnc3c2cnn3-c2ccccc2)no1	> 100 µM (inactive)	> 100	> 100	> 100
CCOC(=O)C1CCN(c2ccc(C(N)=O)cc2[N+](=O)[O-])CC1	16.3 µM	55.2	> 100	> 100
CCOCC(=O)Nc1ccc(F)c(F)c1	81.2 µM (inactive)	94.5	> 100	> 100
CCN(CC)c1ccc(N=Cc2c(O)n(-c3ccc(Cl)cc3)c(=O)[nH]c2=O)cc1	20.9 µM	> 100	> 100	> 100
COc1cccc(NC(=O)C2CC2)c1	6.09 µM	> 100	> 100	> 100
Cc1ccc(CNC(=O)c2cn(C)c3ccc(S(=O)(=O)N4CCOCC4)cc3c2=O)cc1	> 50 µM (inactive)	> 100	> 100	> 50
C/C(=N/NC(=O)c1cccs1)c1ccc(NC(=O)COc2ccc(Cl)cc2)cc1	> 100 µM (inactive)	> 100	> 100	> 100
c1ccc(-c2cc3ccccc3[nH]2)cc1	> 100 µM (inactive)	> 100	> 100	> 100
